Where two headings read alike, the source gives them in different places.

A short description of data set [1]: Fluorescence quantum yield. The class given is physicochemical.
Data set [2] can be described thus: Lifetime of the triplet state in aqueous solution. The class given is physicochemical.
A short description of data set [3]: Quantum yield of the formation of singlet oxygen (phosphorescence at 1270 nm versus reference photosensitizer TPPS). The class given is physicochemical. The conditions noted are these: deuterated aqueous solution. The text has this:
According to the present invention, the reference photosensitizer used in meso-tetrakis(3-sulfophenyl)porphyrin (TPPS) whereof the value for the quantum yield of the formation of singlet oxygen in deuterated water is 0.64 at 7.4 pH (photochem. Photobiol, 70: 391, 1999).

The nature of data set [4]: Lifetime of singlet oxygen. The class given is physicochemical. The following applies: in deuterated water.
The conditions of data set [5]: deuterated water, 7.4 pH; cited from earlier work.

Consider bacteriochlorin, for which the Fluorescence quantum yield in data set [1] is 0.013. The “Lifetime of the triplet state” value in data set [2] (air-saturated aqueous solution) worked out at 3.88 μs; in data set [2] (nitrogen-saturated aqueous solution), 235 μs. The “Quantum yield of the formation of singlet oxygen” value in data set [3] was “greater than 30%”. Further, the “Lifetime of singlet oxygen” value in data set [4] amounted to 65 μs.

Consider `O=S(=O)(O)c1cccc(-c2c3nc(c(-c4cccc(S(=O)(=O)O)c4)c4ccc([nH]4)c(-c4cccc(S(=O)(=O)O)c4)c4nc(c(-c5cccc(S(=O)(=O)O)c5)c5ccc2[nH]5)C=C4)C=C3)c1` [TPPS, meso-tetrakis(3-sulfophenyl)porphyrin], for which, in data set [5], the “Quantum yield of the formation of singlet oxygen” value is 0.64.

Values taken from patent publication US8592404B2, “Derivatives of porphyrin, particularly chlorins and/or bacteriochlorins, and uses thereof in photodynamic therapy” (Universidade de Coimbra, priority 2004, dated 2013).
